Measurements reported in PMC9490316, “Covalent fragment inhibits intramembrane proteolysis” (Frontiers in Molecular Biosciences, 2022).

Biological target: T1, transmembrane domain of amyloid precursor protein (APPTM) (Homo sapiens, UniProt P05067)
T1 construct: gene APP; APPTM, transmembrane domain of amyloid precursor protein (5,590 Da, 15N labeled, in DPC micelles)
Experiment: 2D 1H-15N TROSY NMR and MALDI-TOF-MS (covalent adducts, up to six additions); the IC50 is from a gel-based assay of APPTM cleavage by PSH
Format: biochemical

T1 sequence (P05067 686-726 limits assumed): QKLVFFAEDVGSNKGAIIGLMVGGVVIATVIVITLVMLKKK

Oc1ccc(O)c2c1C1CCC2C1 [6H8]
IC50: 2 to 4 µM
